Tests used:
Assay in all cases: relative viability (nuclei count vs DMSO), 5 days (fraction); higher = more cells survive
[1] = compound: CCOc1cc2ncc(C#N)c(Nc3ccc(OCc4ccccn4)c(Cl)c3)c2cc1NC(=O)/C=C/CN(C)C [Neratinib] + CCNC(=O)c1noc(-c2cc(C(C)C)c(O)cc2O)c1-c1ccc(CN2CCOCC2)cc1 [Luminespib] (partner 0.01 µM)
Procedure, shortened: (§1)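 One day after seeding in 1536-well plates, lung cancer cell lines were dosed by pin tool. Dosing was either single-drug or a fixed anchor-drug dose plus five library-drug doses (not always all listed) in √10 steps. After 5 days, nuclei were stained in one fix-and-stain step and counted on 4× images, and relative viability is the nuclei count of treated wells over that of vehicle wells, given as the median of duplicate plates.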

[2] = compound: CCOc1cc2ncc(C#N)c(Nc3ccc(OCc4ccccn4)c(Cl)c3)c2cc1NC(=O)/C=C/CN(C)C [Neratinib] + Cc1cc(Nc2cc(N3CCN(C)CC3)nc(Sc3ccc(NC(=O)C4CC4)cc3)n2)n[nH]1 [Tozasertib] (partner 0.1 µM)
Procedure, shortened: as §1

[3] = compound: CCOc1cc2ncc(C#N)c(Nc3ccc(OCc4ccccn4)c(Cl)c3)c2cc1NC(=O)/C=C/CN(C)C [Neratinib] + Cc1nc(NC(=O)N2CCC[C@H]2C(N)=O)sc1-c1ccnc(C(C)(C)C(F)(F)F)c1 [Alpelisib] (partner 2 µM)
Procedure, shortened: as §1

[4] = compound: CCOc1cc2ncc(C#N)c(Nc3ccc(OCc4ccccn4)c(Cl)c3)c2cc1NC(=O)/C=C/CN(C)C [Neratinib] + Cc1nc(Nc2ncc(C(=O)Nc3c(C)cccc3Cl)s2)cc(N2CCN(CCO)CC2)n1 [Dasatinib] (partner 0.075 µM)
Procedure, shortened: as §1

PC-14
relative viability ([1]; first compound 0.01 µM): 0.176 | relative viability ([1]; first compound 0.03162 µM): 0.129 | relative viability ([1]; first compound 0.1 µM): 0.156 | relative viability ([1]; first compound 0.3162 µM): 0.116 | relative viability ([1]; first compound 1 µM): 0.129 | relative viability ([2]; first compound 0.01 µM): 0.574 | relative viability ([2]; first compound 0.03162 µM): 0.721 | relative viability ([2]; first compound 0.1 µM): 0.627 | relative viability ([2]; first compound 0.3162 µM): 0.454 | relative viability ([2]; first compound 1 µM): 0.0727 | relative viability ([3]; first compound 0.01 µM): 1.04 | relative viability ([3]; first compound 0.03162 µM): 0.978 | relative viability ([3]; first compound 0.1 µM): 0.83 | relative viability ([3]; first compound 0.3162 µM): 0.732 | relative viability ([3]; first compound 1 µM): 0.208 | relative viability ([4]; first compound 0.01 µM): 0.22 | relative viability ([4]; first compound 0.03162 µM): 0.265 | relative viability ([4]; first compound 0.1 µM): 0.195 | relative viability ([4]; first compound 0.3162 µM): 0.0282 | relative viability ([4]; first compound 1 µM): 0.0541

RERF-LC-KJ
relative viability ([1]; first compound 0.01 µM): 1.45 | relative viability ([1]; first compound 0.03162 µM): 1.18 | relative viability ([1]; first compound 0.1 µM): 1.16 | relative viability ([1]; first compound 0.3162 µM): 1.14 | relative viability ([1]; first compound 1 µM): 0.531 | relative viability ([2]; first compound 0.01 µM): 0.553 | relative viability ([2]; first compound 0.03162 µM): 0.593 | relative viability ([2]; first compound 0.1 µM): 0.586 | relative viability ([2]; first compound 0.3162 µM): 0.5 | relative viability ([2]; first compound 1 µM): 0.293 | relative viability ([3]; first compound 0.01 µM): 0.842 | relative viability ([3]; first compound 0.03162 µM): 0.841 | relative viability ([3]; first compound 0.1 µM): 0.709 | relative viability ([3]; first compound 0.3162 µM): 0.577 | relative viability ([3]; first compound 1 µM): 0.394 | relative viability ([4]; first compound 0.01 µM): 0.941 | relative viability ([4]; first compound 0.03162 µM): 0.822 | relative viability ([4]; first compound 0.1 µM): 0.681 | relative viability ([4]; first compound 0.3162 µM): 0.653 | relative viability ([4]; first compound 1 µM): 0.335

SK-LU-1
relative viability ([1]; first compound 0.01 µM): 0.187 | relative viability ([1]; first compound 0.03162 µM): 0.213 | relative viability ([1]; first compound 0.1 µM): 0.192 | relative viability ([1]; first compound 0.3162 µM): 0.178 | relative viability ([1]; first compound 1 µM): 0.176 | relative viability ([2]; first compound 0.01 µM): 0.292 | relative viability ([2]; first compound 0.03162 µM): 0.305 | relative viability ([2]; first compound 0.1 µM): 0.277 | relative viability ([2]; first compound 0.3162 µM): 0.294 | relative viability ([2]; first compound 1 µM): 0.227 | relative viability ([3]; first compound 0.01 µM): 1.18 | relative viability ([3]; first compound 0.03162 µM): 1.16 | relative viability ([3]; first compound 0.1 µM): 0.915 | relative viability ([3]; first compound 0.3162 µM): 0.587 | relative viability ([3]; first compound 1 µM): 0.447 | relative viability ([4]; first compound 0.01 µM): 0.174 | relative viability ([4]; first compound 0.03162 µM): 0.175 | relative viability ([4]; first compound 0.1 µM): 0.168 | relative viability ([4]; first compound 0.3162 µM): 0.195 | relative viability ([4]; first compound 1 µM): 0.173

SK-MES-1
relative viability ([1]; first compound 0.01 µM): 1.08 | relative viability ([1]; first compound 0.03162 µM): 0.437 | relative viability ([1]; first compound 0.1 µM): 0.428 | relative viability ([1]; first compound 0.3162 µM): 0.267 | relative viability ([1]; first compound 1 µM): 0.187 | relative viability ([2]; first compound 0.01 µM): 0.947 | relative viability ([2]; first compound 0.03162 µM): 0.996 | relative viability ([2]; first compound 0.1 µM): 0.955 | relative viability ([2]; first compound 0.3162 µM): 0.631 | relative viability ([2]; first compound 1 µM): 0.21 | relative viability ([3]; first compound 0.01 µM): 0.914 | relative viability ([3]; first compound 0.03162 µM): 0.988 | relative viability ([3]; first compound 0.1 µM): 0.661 | relative viability ([3]; first compound 0.3162 µM): 0.384 | relative viability ([3]; first compound 1 µM): 0.207 | relative viability ([4]; first compound 0.01 µM): 0.375 | relative viability ([4]; first compound 0.03162 µM): 0.25 | relative viability ([4]; first compound 0.1 µM): 0.163 | relative viability ([4]; first compound 0.3162 µM): 0.14 | relative viability ([4]; first compound 1 µM): 0.14

SW 1573
relative viability ([1]; first compound 0.01 µM): 0.235 | relative viability ([1]; first compound 0.03162 µM): 0.196 | relative viability ([1]; first compound 0.1 µM): 0.333 | relative viability ([1]; first compound 0.3162 µM): 0.188 | relative viability ([1]; first compound 1 µM): 0.132 | relative viability ([2]; first compound 0.01 µM): 0.203 | relative viability ([2]; first compound 0.03162 µM): 0.152 | relative viability ([2]; first compound 0.1 µM): 0.194 | relative viability ([2]; first compound 0.3162 µM): 0.177 | relative viability ([2]; first compound 1 µM): 0.122 | relative viability ([3]; first compound 0.01 µM): 0.94 | relative viability ([3]; first compound 0.1 µM): 0.591 | relative viability ([3]; first compound 0.3162 µM): 0.577 | relative viability ([3]; first compound 1 µM): 0.515 | relative viability ([4]; first compound 0.01 µM): 0.455 | relative viability ([4]; first compound 0.03162 µM): 0.519 | relative viability ([4]; first compound 0.1 µM): 0.455 | relative viability ([4]; first compound 0.3162 µM): 0.495 | relative viability ([4]; first compound 1 µM): 0.322

UMC-11
relative viability ([1]; first compound 0.01 µM): 1.15 | relative viability ([1]; first compound 0.03162 µM): 1.1 | relative viability ([1]; first compound 0.1 µM): 0.964 | relative viability ([1]; first compound 0.3162 µM): 0.903 | relative viability ([1]; first compound 1 µM): 0.763 | relative viability ([2]; first compound 0.01 µM): 0.198 | relative viability ([2]; first compound 0.03162 µM): 0.2 | relative viability ([2]; first compound 0.1 µM): 0.216 | relative viability ([2]; first compound 0.3162 µM): 0.179 | relative viability ([2]; first compound 1 µM): 0.185 | relative viability ([3]; first compound 0.01 µM): 0.721 | relative viability ([3]; first compound 0.03162 µM): 0.988 | relative viability ([3]; first compound 0.1 µM): 0.96 | relative viability ([3]; first compound 0.3162 µM): 0.963 | relative viability ([3]; first compound 1 µM): 0.802 | relative viability ([4]; first compound 0.01 µM): 0.482 | relative viability ([4]; first compound 0.03162 µM): 0.505 | relative viability ([4]; first compound 0.1 µM): 0.399 | relative viability ([4]; first compound 0.3162 µM): 0.384 | relative viability ([4]; first compound 1 µM): 0.425

From the supplement of paper PMC10307832
